pKd: −log10 of the molar value.

For this experiment, the target named is transthyretin (TTR^WT) (Homo sapiens, UniProt P02766). Put plainly: isothermal titration calorimetry. Format: binding. (Isothermal titration calorimetry measures the heat released or taken up as one component is titrated into another.)

Regarding `O=S(=O)(F)Oc1ccc(-c2nnc(-c3cc(Cl)c(O)c(Cl)c3)o2)cc1` [compound 4, probe 4], the pKd (as a rule, the negative decadic logarithm of the Kd, by convention in mol/L) was 8.70.
